Test results from patent US8247211B2, “Glycopeptide antibiotics” (American Cyanamid Company, priority 2001, dated 2012).
Values after ≈ are worked out from the molar mass of the structure shown.

Legend:
Assay in all cases: In vitro antibacterial evaluation: minimum inhibitory concentration (MIC), broth dilution method
Type in all cases: cell-based
Escherichia coli = settings: broth dilution, 18 hours at 35° C.
Staphylococcus sp. = settings: strain SMITH GC 4543; broth dilution, 18 hours at 35° C.
Summary of the method: (§1)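 NCCLS M7-A2 broth dilution with Mueller-Hinton II, testing 64-0.06 μg/mL antibiotic against 5×10^5 CFU/mL inocula. Test strains include recent methicillin-, penicillin- or vancomycin-resistant clinical isolates. MIC is the lowest concentration preventing growth.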

Streptococcus sp. = settings: broth dilution, 18 hours at 35° C.
Summary of the method: as §1

Enterococcus sp. = settings: broth dilution, 18 hours at 35° C.
Summary of the method: as §1

[1] = Streptococcus agalactiae (GC 4564)
[2] = Streptococcus pneumoniae (ATCC 6301)
[3] = Streptococcus pneumoniae (GC 1894)
[4] = Streptococcus pneumoniae (GC 4565)
[5] = Streptococcus pyogenes (GC 4563)
[6] = Enterococcus faecalis (ATCC 29212)
[7] = Enterococcus faecalis (GC 2242)
[8] = Enterococcus faecalis (GC 2691)
[9] = Enterococcus faecalis (GC 3059)
[10] = Enterococcus faecalis (GC 4552)
[11] = Enterococcus faecalis (GC 4553)
[12] = Enterococcus faecalis (GC 4554)
[13] = Enterococcus faecalis (GC 6189)

## CC(c1ccccc1)C1NC(=O)CNC(=O)C(CO)NC(=O)C(C(O)C2CNC(=N)N2C2OC(CO)C(O)C(O)C2O)NC(=O)C(C(O)C2CNC(=N)N2)NC(=O)C(Cc2ccc3oc(-c4ccc(Br)cc4)nc3c2)NC1=O (stereo not drawn) [Example 27, Cyclo[3-[2-(4-bromaphenyl)-1,3-benzoxazol-5-yl]alanyl-3-(2-iminoimidazolidin-4-yl)seryl-3-(3-hexopyranosyl-2-iminoimidazolidin-4-yl)serylserylglycyl-β-methylphenylalanyl]]
Escherichia coli
  MIC Escherichia coli (ATCC 25922): 32 µg/mL (≈ 27.8 µM)
  MIC Escherichia coli (GC 4559): 32 µg/mL (≈ 27.8 µM)
  MIC Escherichia coli (GC 4560): 8 µg/mL (≈ 6.95 µM)
Staphylococcus sp.
  MIC Staphylococcus aureus-SMITH (GC 4543): 8 µg/mL (≈ 6.95 µM)
Streptococcus sp.; [1]
  MIC Streptococcus agalactiae (GC 4564): 32 µg/mL (≈ 27.8 µM)
Streptococcus sp.; [2]
  MIC Streptococcus pneumoniae (ATCC 6301): 16 µg/mL (≈ 13.9 µM)
Streptococcus sp.; [3]
  MIC Streptococcus pneumoniae (GC 1894): 32 µg/mL (≈ 27.8 µM)
Streptococcus sp.; [4]
  MIC Streptococcus pneumoniae (GC 4565): 16 µg/mL (≈ 13.9 µM)
Streptococcus sp.; [5]
  MIC Streptococcus pyogenes (GC 4563): 8 µg/mL (≈ 6.95 µM)
Streptococcus sp.
  MIC Streptococcus agalactiae (GC 4564): 32 µg/mL (≈ 27.8 µM)
  MIC Streptococcus pneumoniae (ATCC 6301): 16 µg/mL (≈ 13.9 µM)
  MIC Streptococcus pneumoniae (GC 1894): 32 µg/mL (≈ 27.8 µM)
  MIC Streptococcus pneumoniae (GC 4565): 16 µg/mL (≈ 13.9 µM)
  MIC Streptococcus pyogenes (GC 4563): 8 µg/mL (≈ 6.95 µM)
Enterococcus sp.; Enterococcus avium (GC 4558)
  MIC Enterococcus avium (GC 4558): 16 µg/mL (≈ 13.9 µM)
Enterococcus sp.; [6]
  MIC Enterococcus faecalis (ATCC 29212): 32 µg/mL (≈ 27.8 µM)
Enterococcus sp.; [7]
  MIC Enterococcus faecalis (GC 2242): 32 µg/mL (≈ 27.8 µM)
Enterococcus sp.; [8]
  MIC Enterococcus faecalis (GC 2691): 32 µg/mL (≈ 27.8 µM)
Enterococcus sp.; [9]
  MIC Enterococcus faecalis (GC 3059): 32 µg/mL (≈ 27.8 µM)
Enterococcus sp.; [10]
  MIC Enterococcus faecalis (GC 4552): 64 µg/mL (≈ 55.6 µM)
Enterococcus sp.; [11]
  MIC Enterococcus faecalis (GC 4553): 16 µg/mL (≈ 13.9 µM)
Enterococcus sp.; [12]
  MIC Enterococcus faecalis (GC 4554): 32 µg/mL (≈ 27.8 µM)
Enterococcus sp.; [13]
  MIC Enterococcus faecalis (GC 6189): 32 µg/mL (≈ 27.8 µM)
Enterococcus sp.; Enterococcus faecium (GC 2243)
  MIC Enterococcus faecium (GC 2243): 32 µg/mL (≈ 27.8 µM)
Enterococcus sp.; Enterococcus faecium (GC 4556)
  MIC Enterococcus faecium (GC 4556): 64 µg/mL (≈ 55.6 µM)
Enterococcus sp.; Enterococcus faecium (GC 4557)
  MIC Enterococcus faecium (GC 4557): 8 µg/mL (≈ 6.95 µM)
Enterococcus sp.
  MIC Enterococcus avium (GC 4558): 16 µg/mL (≈ 13.9 µM)
  MIC Enterococcus faecalis (ATCC 29212): 32 µg/mL (≈ 27.8 µM)
  MIC Enterococcus faecalis (GC 2242): 32 µg/mL (≈ 27.8 µM)
  MIC Enterococcus faecalis (GC 2691): 32 µg/mL (≈ 27.8 µM)
  MIC Enterococcus faecalis (GC 3059): 32 µg/mL (≈ 27.8 µM)
  MIC Enterococcus faecalis (GC 4552): 64 µg/mL (≈ 55.6 µM)
  MIC Enterococcus faecalis (GC 4553): 16 µg/mL (≈ 13.9 µM)
  MIC Enterococcus faecalis (GC 4554): 32 µg/mL (≈ 27.8 µM)
  MIC Enterococcus faecalis (GC 6189): 32 µg/mL (≈ 27.8 µM)
  MIC Enterococcus faecium (GC 2243): 32 µg/mL (≈ 27.8 µM)
  MIC Enterococcus faecium (GC 4556): 64 µg/mL (≈ 55.6 µM)
  MIC Enterococcus faecium (GC 4557): 8 µg/mL (≈ 6.95 µM)

## CC(c1ccccc1)C1NC(=O)CNC(=O)C(CO)NC(=O)C(C(O)C2CNC(=N)N2C2OC(CO)C(O)C(O)C2O)NC(=O)C(C(O)C2CNC(=N)N2)NC(=O)C(Cc2ccc3oc(-c4ccc(N(C)C)cc4)nc3c2)NC1=O (stereo not drawn) [Example 29, Cyclo[3-[2-[4-(dimethylamino)phenyl]-1,3-benzoxazol-5-yl]alanyl-3-(2-iminoimidazolidin-4-yl)-seryl-3-(3-hexopyranosyl-2-iminoimidazolidin-4-yl)serylserylglycyl-β-methylphenyl-alanyl]]
Escherichia coli
  MIC Escherichia coli (ATCC 25922): 16 µg/mL (≈ 14.3 µM)
  MIC Escherichia coli (GC 4559): 16 µg/mL (≈ 14.3 µM)
  MIC Escherichia coli (GC 4560): 4 µg/mL (≈ 3.59 µM)
Staphylococcus sp.
  MIC Staphylococcus aureus-SMITH (GC 4543): 8 µg/mL (≈ 7.17 µM)
Streptococcus sp.; [1]
  MIC Streptococcus agalactiae (GC 4564): 32 µg/mL (≈ 28.7 µM)
Streptococcus sp.; [2]
  MIC Streptococcus pneumoniae (ATCC 6301): 32 µg/mL (≈ 28.7 µM)
Streptococcus sp.; [3]
  MIC Streptococcus pneumoniae (GC 1894): 32 µg/mL (≈ 28.7 µM)
Streptococcus sp.; [4]
  MIC Streptococcus pneumoniae (GC 4565): 32 µg/mL (≈ 28.7 µM)
Streptococcus sp.; [5]
  MIC Streptococcus pyogenes (GC 4563): 16 µg/mL (≈ 14.3 µM)
Streptococcus sp.
  MIC Streptococcus agalactiae (GC 4564): 32 µg/mL (≈ 28.7 µM)
  MIC Streptococcus pneumoniae (ATCC 6301): 32 µg/mL (≈ 28.7 µM)
  MIC Streptococcus pneumoniae (GC 1894): 32 µg/mL (≈ 28.7 µM)
  MIC Streptococcus pneumoniae (GC 4565): 32 µg/mL (≈ 28.7 µM)
  MIC Streptococcus pyogenes (GC 4563): 16 µg/mL (≈ 14.3 µM)
Enterococcus sp.; Enterococcus avium (GC 4558)
  MIC Enterococcus avium (GC 4558): 16 µg/mL (≈ 14.3 µM)
Enterococcus sp.; [6]
  MIC Enterococcus faecalis (ATCC 29212): 32 µg/mL (≈ 28.7 µM)
Enterococcus sp.; [7]
  MIC Enterococcus faecalis (GC 2242): 32 µg/mL (≈ 28.7 µM)
Enterococcus sp.; [8]
  MIC Enterococcus faecalis (GC 2691): 32 µg/mL (≈ 28.7 µM)
Enterococcus sp.; [9]
  MIC Enterococcus faecalis (GC 3059): 64 µg/mL (≈ 57.4 µM)
Enterococcus sp.; [10]
  MIC Enterococcus faecalis (GC 4552): 64 µg/mL (≈ 57.4 µM)
Enterococcus sp.; [11]
  MIC Enterococcus faecalis (GC 4553): 16 µg/mL (≈ 14.3 µM)
Enterococcus sp.; [12]
  MIC Enterococcus faecalis (GC 4554): 32 µg/mL (≈ 28.7 µM)
Enterococcus sp.; [13]
  MIC Enterococcus faecalis (GC 6189): 32 µg/mL (≈ 28.7 µM)
Enterococcus sp.; Enterococcus faecium (GC 2243)
  MIC Enterococcus faecium (GC 2243): 16 µg/mL (≈ 14.3 µM)
Enterococcus sp.; Enterococcus faecium (GC 4556)
  MIC Enterococcus faecium (GC 4556): 64 µg/mL (≈ 57.4 µM)
Enterococcus sp.; Enterococcus faecium (GC 4557)
  MIC Enterococcus faecium (GC 4557): 8 µg/mL (≈ 7.17 µM)
Enterococcus sp.
  MIC Enterococcus avium (GC 4558): 16 µg/mL (≈ 14.3 µM)
  MIC Enterococcus faecalis (ATCC 29212): 32 µg/mL (≈ 28.7 µM)
  MIC Enterococcus faecalis (GC 2242): 32 µg/mL (≈ 28.7 µM)
  MIC Enterococcus faecalis (GC 2691): 32 µg/mL (≈ 28.7 µM)
  MIC Enterococcus faecalis (GC 3059): 64 µg/mL (≈ 57.4 µM)
  MIC Enterococcus faecalis (GC 4552): 64 µg/mL (≈ 57.4 µM)
  MIC Enterococcus faecalis (GC 4553): 16 µg/mL (≈ 14.3 µM)
  MIC Enterococcus faecalis (GC 4554): 32 µg/mL (≈ 28.7 µM)
  MIC Enterococcus faecalis (GC 6189): 32 µg/mL (≈ 28.7 µM)
  MIC Enterococcus faecium (GC 2243): 16 µg/mL (≈ 14.3 µM)
  MIC Enterococcus faecium (GC 4556): 64 µg/mL (≈ 57.4 µM)
  MIC Enterococcus faecium (GC 4557): 8 µg/mL (≈ 7.17 µM)
